In ChEMBL document CHEMBL5303573, “Mapping human microbiome drug metabolism by gut bacteria and their genes” (Nature, 2019):

Key:
[1] = bacteroides thetaiotaomicron, 12 h, 2 µM
Description: The drug is tested on Bacteroides thetaiotaomicron strain: 3731 for biotransformation. The drug concentrations were measured before and after a 12-h incubation by liquid-chromatography-coupled mass spectrometry (LC–MS)

[2] = The drug is tested on Providencia stuartii strain: ATCC25827 for biotransformation. The drug concentrations were measured before and after a 12-h incubation by liquid-chromatography-coupled mass spectrometry (LC–MS); settings: 2 µM
[3] = The drug is tested on Clostridium sp. strain: fecal isolate for biotransformation. The drug concentrations were measured before and after a 12-h incubation by liquid-chromatography-coupled mass spectrometry (LC–MS); settings: 2 µM
[4] = The drug is tested on Bacteroides fragilis strain: HMW610 for biotransformation. The drug concentrations were measured before and after a 12-h incubation by liquid-chromatography-coupled mass spectrometry (LC–MS); settings: 2 µM
[5] = The drug is tested on Providencia rettgeri strain: DSM1131 for biotransformation. The drug concentrations were measured before and after a 12-h incubation by liquid-chromatography-coupled mass spectrometry (LC–MS); format: ADME; set-up: dose 2 uM, timepoint 0 vs 12 hours; settings: 2 µM
[6] = bacteroides fragilis, 12 h, 2 µM
Description: The drug is tested on Bacteroides fragilis strain: 3397 (T10) for biotransformation. The drug concentrations were measured before and after a 12-h incubation by liquid-chromatography-coupled mass spectrometry (LC–MS)

[7] = The drug is tested on Clostridium symbiosum strain: ATCC14940 for biotransformation. The drug concentrations were measured before and after a 12-h incubation by liquid-chromatography-coupled mass spectrometry (LC–MS); settings: 2 µM
[8] = bacteroides fragilis, 12 h, 2 µM; remark: listed apart in the source
Description: The drug is tested on Bacteroides fragilis strain: NCTC 9343 for biotransformation. The drug concentrations were measured before and after a 12-h incubation by liquid-chromatography-coupled mass spectrometry (LC–MS)

[9] = parabacteroides johnsonii, 12 h, 2 µM
Description: The drug is tested on Parabacteroides johnsonii strain: DSM18315 for biotransformation. The drug concentrations were measured before and after a 12-h incubation by liquid-chromatography-coupled mass spectrometry (LC–MS)

[10] = The drug is tested on Dorea formicigenerans strain: ATCC27755 for biotransformation. The drug concentrations were measured before and after a 12-h incubation by liquid-chromatography-coupled mass spectrometry (LC–MS); settings: 2 µM
[11] = anaerostipes sp., 12 h, 2 µM
Description: The drug is tested on Anaerostipes sp. strain: fecal isolate for biotransformation. The drug concentrations were measured before and after a 12-h incubation by liquid-chromatography-coupled mass spectrometry (LC–MS)

[12] = segatella copri, 12 h, 2 µM
Description: The drug is tested on Prevotella copri strain: DSM18205 for biotransformation. The drug concentrations were measured before and after a 12-h incubation by liquid-chromatography-coupled mass spectrometry (LC–MS)

[13] = The drug is tested on Bacteroides caccae strain: ATCC43185 for biotransformation. The drug concentrations were measured before and after a 12-h incubation by liquid-chromatography-coupled mass spectrometry (LC–MS); settings: 2 µM
[14] = The drug is tested on Blautia luti strain: DSM14534 for biotransformation. The drug concentrations were measured before and after a 12-h incubation by liquid-chromatography-coupled mass spectrometry (LC–MS); format: ADME; set-up: dose 2 uM, timepoint 0 vs 12 hours; settings: 2 µM
[15] = The drug is tested on Ruminococcus torques strain: ATCC27756 for biotransformation. The drug concentrations were measured before and after a 12-h incubation by liquid-chromatography-coupled mass spectrometry (LC–MS); format: ADME; set-up: dose 2 uM, timepoint 0 vs 12 hours; settings: 2 µM
[16] = The drug is tested on Collinsella intestinalis strain: DSM13280 for biotransformation. The drug concentrations were measured before and after a 12-h incubation by liquid-chromatography-coupled mass spectrometry (LC–MS); settings: 2 µM
[17] = The drug is tested on Subdoligranulum variabile strain: DSM15176 for biotransformation. The drug concentrations were measured before and after a 12-h incubation by liquid-chromatography-coupled mass spectrometry (LC–MS); settings: 2 µM
[18] = The drug is tested on Clostridium sporogenes strain: ATCC15579 for biotransformation. The drug concentrations were measured before and after a 12-h incubation by liquid-chromatography-coupled mass spectrometry (LC–MS); settings: 2 µM
[19] = akkermansia muciniphila, 12 h, 2 µM
Description: The drug is tested on Akkermansia muciniphila strain: ATCC BAA-835 for biotransformation. The drug concentrations were measured before and after a 12-h incubation by liquid-chromatography-coupled mass spectrometry (LC–MS)

[20] = The drug is tested on Edwardsiella tarda strain: ATCC23685 for biotransformation. The drug concentrations were measured before and after a 12-h incubation by liquid-chromatography-coupled mass spectrometry (LC–MS); settings: 2 µM

Row | SMILES | Bacterial Biotransformation [1] | Bacterial Biotransformation [2] | Bacterial Biotransformation [3] | Bacterial Biotransformation [4] | Bacterial Biotransformation [5] | Bacterial Biotransformation [6] | Bacterial Biotransformation [7] | Bacterial Biotransformation [8] | Bacterial Biotransformation [9] | Bacterial Biotransformation [10] | Bacterial Biotransformation [11] | Bacterial Biotransformation [12] | Bacterial Biotransformation [13] | Bacterial Biotransformation [14] | Bacterial Biotransformation [15] | Bacterial Biotransformation [16] | Bacterial Biotransformation [17] | Bacterial Biotransformation [18] | Bacterial Biotransformation [19] | Bacterial Biotransformation [20]
1 | Nc1ccc(/N=N/c2ccccc2)c(N)n1 [PHENAZOPYRIDINE] | Compound metabolized | Compound NOT metabolized | Compound metabolized | Compound metabolized | Compound NOT metabolized | Compound metabolized | Compound metabolized | Compound metabolized | Compound metabolized | Compound metabolized | Compound metabolized | Compound metabolized | Compound metabolized | Compound metabolized | Compound metabolized | Compound metabolized | Compound metabolized | Compound metabolized |  | 
2 | CCN(CC)CCNC(=O)c1ccc(NC(C)=O)cc1 [ACECAINIDE] |  |  | Compound NOT metabolized | Compound NOT metabolized | Compound NOT metabolized | Compound NOT metabolized | Compound NOT metabolized |  | Compound NOT metabolized | Compound NOT metabolized | Compound NOT metabolized | Compound NOT metabolized | Compound NOT metabolized | Compound NOT metabolized | Compound NOT metabolized | Compound NOT metabolized | Compound NOT metabolized | Compound NOT metabolized | Compound NOT metabolized | Compound NOT metabolized
3 | CCc1oc2ccccc2c1C(=O)c1cc(Br)c(O)c(Br)c1 [BENZBROMARONE] | Compound NOT metabolized | Compound NOT metabolized | Compound NOT metabolized | Compound NOT metabolized | Compound NOT metabolized | Compound NOT metabolized | Compound NOT metabolized | Compound NOT metabolized | Compound NOT metabolized | Compound NOT metabolized | Compound NOT metabolized | Compound NOT metabolized | Compound NOT metabolized | Compound NOT metabolized |  |  | Compound NOT metabolized | Compound NOT metabolized | Compound NOT metabolized | Compound NOT metabolized
4 | COc1cc2c(c(OC)c1OC)-c1ccc(OC)c(=O)cc1[C@@H](NC(C)=O)CC2 [COLCHICINE] | Compound metabolized | Compound NOT metabolized | Compound metabolized | Compound metabolized | Compound NOT metabolized | Compound metabolized | Compound metabolized | Compound metabolized | Compound metabolized | Compound NOT metabolized | Compound metabolized | Compound metabolized |  | Compound NOT metabolized | Compound NOT metabolized | Compound NOT metabolized | Compound NOT metabolized | Compound metabolized | Compound NOT metabolized | Compound NOT metabolized
5 | CNC(=C[N+](=O)[O-])NCCSCc1ccc(CN(C)C)o1 [RANITIDINE] | Compound NOT metabolized | Compound NOT metabolized | Compound metabolized | Compound NOT metabolized | Compound NOT metabolized | Compound NOT metabolized | Compound metabolized | Compound metabolized | Compound metabolized | Compound metabolized | Compound NOT metabolized | Compound metabolized |  | Compound metabolized | Compound metabolized | Compound metabolized | Compound metabolized | Compound NOT metabolized | Compound metabolized | Compound NOT metabolized
6 | Cc1nc2n(c(=O)c1CCN1CCC(c3noc4cc(F)ccc34)CC1)CCCC2 [RISPERIDONE] | Compound NOT metabolized |  | Compound metabolized | Compound metabolized | Compound NOT metabolized | Compound NOT metabolized | Compound metabolized | Compound NOT metabolized | Compound NOT metabolized |  |  | Compound NOT metabolized | Compound metabolized | Compound metabolized | Compound NOT metabolized | Compound metabolized | Compound metabolized | Compound metabolized | Compound NOT metabolized | Compound NOT metabolized
7 | O=C(O)c1cc(/N=N/c2ccc(S(=O)(=O)Nc3ccccn3)cc2)ccc1O [SULFASALAZINE] | Compound metabolized |  | Compound metabolized | Compound metabolized | Compound NOT metabolized | Compound metabolized | Compound metabolized | Compound metabolized | Compound metabolized | Compound metabolized | Compound metabolized | Compound metabolized | Compound metabolized | Compound metabolized | Compound metabolized | Compound metabolized | Compound metabolized | Compound metabolized | Compound metabolized | 
8 | c1ccc([C@H]2CN3CCSC3=N2)cc1 [LEVAMISOLE] | Compound NOT metabolized | Compound metabolized | Compound metabolized | Compound metabolized | Compound NOT metabolized | Compound metabolized | Compound metabolized | Compound metabolized | Compound metabolized | Compound metabolized | Compound NOT metabolized | Compound NOT metabolized | Compound metabolized | Compound NOT metabolized | Compound NOT metabolized | Compound NOT metabolized | Compound NOT metabolized | Compound metabolized |  | Compound metabolized
9 | Cc1nc2n(c(=O)c1CCN1CCC(c3noc4cc(F)ccc34)CC1)CCCC2O (centres undefined) [PALIPERIDONE] | Compound metabolized |  | Compound metabolized | Compound NOT metabolized | Compound metabolized | Compound metabolized | Compound metabolized | Compound metabolized | Compound metabolized | Compound metabolized | Compound metabolized | Compound metabolized | Compound metabolized | Compound metabolized | Compound metabolized | Compound NOT metabolized | Compound metabolized | Compound metabolized | Compound metabolized | Compound metabolized
